Key:
FUS^RGG3PY = target: T1, FUS^RGG3PY (Homo sapiens, UniProt P35637); experiment: 1H-15N HSQC NMR titration (CSP); format: binding; conditions: no RNA; EGCG 10-500 µM; 30 µM protein; pH 6.0, 150 mM NaCl, 25 °C; several sites, non-specific
T1 construct: RGG3-PY region, residues 454-526, unmethylated; His6-protein A tag cut by TEV; E. coli BL21(DE3) Star
T1 sequence (P35637 454-526): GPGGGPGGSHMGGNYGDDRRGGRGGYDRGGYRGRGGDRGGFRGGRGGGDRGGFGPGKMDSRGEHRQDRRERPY

FUS RGG3PY = FUS RGG3PY (UniProt P35637 454-526); experiment: NMR 1H-15N HSQC titration; 30 uM protein, 0-7.5 uM RNA; unmethylated; CSPs lower than methylated at 4:1, line broadening; 50 mM sodium succinate pH 6.0, 150 mM NaCl, 2 mM TCEP, 0.04% NaN3, 10% D2O, 25 C; conditions: protein: recombinant; tags: His6-protein A tag removed by TEV

Molecule | 1H-15N HSQC NMR titration (CSP) (FUS^RGG3PY) | binding result (FUS RGG3PY)
O=C(O[C@@H]1Cc2c(O)cc(O)cc2O[C@@H]1c1cc(O)c(O)c(O)c1)c1cc(O)c(O)c(O)c1 [EGCG] | EGCG can directly interact with the RGG3-PY region of FUS | –
UGUGUGUGUGUGUGUGUGUGUGUG (ssRNA) [(UG)12 RNA] | – | binds
